# Experimental data published in patent publication US6921821B2, “Antagonists of melanin concentrating hormone receptor” (Abbott Laboratories, priority 2002, dated 2005).
# Counter-ions that a name gives are not always drawn.
# Target: T1, murine MCHR (Mus musculus, UniProt Q8JZL2)
# T1 construct: expressed in transfected cells; host or cells: HEK293
# Experiment: Assay for release of intracellular calcium (FLIPR, Fluo-4), inhibition of MCH-induced Ca++ flux
# Type: cell-based
# Conditions: test compound at a dose of 10 μM, HEK293 cells expressing the murine MCHR, read-out: inhibition of MCH (MCH induced Ca++ flux / fluorescence)
# Procedure: Assay for Release of Intracellular Calcium
# Activation of the melanin concentrating hormone receptor (MCHR) by MCH induces the release of Ca^++ from intracellular stores. This intracellular calcium release is measured using a fluorometric imaging plate reader (FLIPR™, Molecular Devices Corp.) in conjunction with the Ca^++-sensitive dye Fluo-4. Release of Ca^++ from intracellular stores causes an increase in fluorescence of the dye that is proportional to Ca^++ concentration. Briefly, the assays are performed as follows. HEK293 cells expressing the murine MCHR are plated overnight at 50,000 cells/well in 96-well plates. The following day, culture medium is removed and replaced with 100 μl/well of D-PBS (+glucose and sodium pyruvate) containing 2.5 μM Fluo-4AM (Molecular Probes), 0.01% Pluronic F-127 and 2.5 mM probenecid. Cells are loaded with the Fluo-4 dye for at least one hour at room temp. After loading, the cells are washed gently to remove extracellular dye and 100 μl of D-PBS (+glucose and sodium pyruvate) is added to each well. Test compounds are prepared at 40 μM in 4% DMSO. The cell plate is placed in the FLIPR™ and 50 μl/well of test compound is delivered. The calcium signal is followed for 3 minutes to assay for potential agonist activity by the test compounds. Then 50 μl/well of 12 nM mouse MCH (in D-PBS containing 0.1% BSA) is added and the ligand-induced calcium signal is followed for an additional 3 minutes. Antagonist activity as determined by the test compounds ability to inhibit MCH induced Ca^++ flux is calculated as % inhibition as described by the following formula: % inhibition=[1−((fTC−fB)÷(fMCH−fB))]×100, where fTC=MCH-induced fluorescence in the presence of test compound; fMCH=MCH-induced fluorescence in the absence of test compound; and fB=Baseline fluorescence.
# MCH (3 nM) usually elicits a response of 30,000-40,000 relative fluorescence units (RFU) with a baseline of about 1000 RFU. Fluo-4 fluorescence is measured at 488 nm, with an exposure of 0.40 sec. and F-stop=2.0 and the laser set at 0.40-0.60 W constant light output.
# T1 sequence (Q8JZL2 whole entry): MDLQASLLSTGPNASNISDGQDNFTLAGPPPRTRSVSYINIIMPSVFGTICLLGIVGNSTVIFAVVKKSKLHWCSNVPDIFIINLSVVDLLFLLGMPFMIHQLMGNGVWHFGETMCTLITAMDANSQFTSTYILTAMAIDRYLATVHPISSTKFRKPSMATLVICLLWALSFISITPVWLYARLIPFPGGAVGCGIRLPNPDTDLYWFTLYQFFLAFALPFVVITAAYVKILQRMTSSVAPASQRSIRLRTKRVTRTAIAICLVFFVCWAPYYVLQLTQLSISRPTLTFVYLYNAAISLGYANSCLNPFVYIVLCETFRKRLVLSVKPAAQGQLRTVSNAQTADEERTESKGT
row,Compound,inhibition at 10 µM
1,"COC(=O)c1c(NC2CCN(Cc3ccc4c(c3)OCO4)CC2)c2cc(Cl)ccc2n(C)c1=O [Compound V-39, 4-(1-Benzo[1,3]dioxol-5-ylmethyl-piperidin-4-ylamino)-6-chloro-1-methyl-2-oxo-1,2-dihydro-quinoline-3-carboxylic acid methyl ester]",≥ 50%
2,"CN(C)C(=O)c1c(NC2CCN(Cc3ccc4c(c3)OCO4)CC2)c2cc(Br)ccc2n(C)c1=O [Compound V-42, 4-(1-Benzo[1,3]dioxol-5-ylmethyl-piperidin-4-ylamino)-6-bromo-1-methyl-2-oxo-1,2-dihydro-quinoline-3-carboxylic acid dimethylamide]",≥ 50%
3,"O=c1cc(NC2CCN(C/C=C/c3ccccc3)CC2)c2ccccc2n1Cc1ccccc1 [Compound V-44, 1-Benzyl-4-[1-(3-phenyl-allyl)-piperidin-4-ylamino]-1H-quinolin-2-one]",≥ 50%
4,"Cn1c(=O)cc(NC2CCN(Cc3ccc4ccccc4c3)CC2)c2cc(O)ccc21 [Compound V-46, 6-Hydroxy-1-methyl-4-(1-naphthalen-2-ylmethyl-piperidin-4-ylamino)-1H-quinolin-2-one]",≥ 50%
5,"Cn1c(=O)cc(NC2CCN(C/C=C/c3ccccc3)CC2)c2ccccc21 [Compound V-47, 1-Methyl-4-[1-(3-phenyl-allyl)-piperidin-4-ylamino]-1H-quinolin-2-one]",≥ 50%
6,"Cn1c(=O)c(C#N)c(NC2CCN(Cc3ccc4c(c3)OCO4)CC2)c2cc(Cl)ccc21 [Compound V-51, 4-(1-Benzo[1,3]dioxol-5-ylmethyl-piperidin-4-ylamino)-6-chloro-1-methyl-2-oxo-1,2-dihydro-quinoline-3-carbonitrile]",≥ 50%
7,"CON(C)C(=O)c1c(NC2CCN(Cc3ccc4c(c3)OCO4)CC2)c2cc(Cl)ccc2n(C)c1=O [Compound V-52, 4-(1-Benzo[1,3]dioxol-5-ylmethyl-piperidin-4-ylamino)-6-chloro-1-methyl-2-oxo-1,2-dihydro-quinoline-3-carboxylic acid methoxy-methyl-amide]",≥ 50%
8,"N#Cc1c(NC2CCN(Cc3ccc4ccccc4c3)CC2)c2cc(Cl)ccc2[nH]c1=O [Compound V-53, 6-Chloro-4-(1-naphthalen-2-ylmethyl-piperidin-4-ylamino)-2-oxo-1,2-dihydro-quinoline-3-carbonitrile]",≥ 50%
9,"COc1ccc(CN2CCC(Nc3c(C(=O)N(C)C)c(=O)n(C)c4ccc(Cl)cc34)CC2)cc1F [Compound V-54, 6-Chloro-4-[1-(3-fluoro-4-methoxy-benzyl)-piperidin-4-ylamino]-1-methyl-2-oxo-1,2-dihydro-quinoline-3-carboxylic acid dimethylamide]",≥ 50%
10,O=c1cc(NC2CC3CCC(C2)N3Cc2ccc3c(c2)OCO3)c2cc(Cl)ccc2n1CC(F)(F)F (centres unmarked) [Compound V-57],≥ 50%
11,"Cn1c(=O)c(C(=O)N2CCCC2)c(NC2CCN(Cc3ccc4c(c3)OCO4)CC2)c2cc(Cl)ccc21 [Compound V-59, 4-(1-Benzo[1,3]dioxol-5-ylmethyl-piperidin-4-ylamino)-6-chloro-1-methyl-3-(pyrrolidine-1-carbonyl)-1H-quinolin-2-one]",≥ 50%
12,"CCn1c(=O)cc(NC2CCN(C/C=C/c3ccccc3)CC2)c2cc(Cl)ccc21 [Compound V-63, 6-Chloro-1-ethyl-4-[1-(3-phenyl-allyl)-piperidin-4-ylamino]-1H-quinolin-2-one]",≥ 50%
13,"COc1ccc2oc(=O)cc(NC3CCN(Cc4ccc5c(c4)OCO5)CC3)c2c1 [II-1, 4-(1-Benzo[1,3]dioxol-5-ylmethyl-piperidin-4-ylamino)-6-methoxy-chromen-2-one]",≥ 50%
14,"O=c1cc(NC2CCN(Cc3ccc4ccccc4c3)CC2)c2cc(Cl)ccc2o1 [II-2, 6—Chloro-4-(1-naphthalen-2-ylmethyl-piperidin-4-ylamino)-chromen-2-one]",≥ 50%
15,"Cc1ccc2oc(=O)cc(NC3CCN(Cc4ccc5c(c4)OCO5)CC3)c2c1 [II-3, 4-(1-Benzo[1,3]dioxol-5-ylmethyl-piperidin-4-ylamino)-6-methyl-chromen-2-one]",≥ 50%
16,"O=c1cc(NC2CCN(Cc3ccc4c(c3)OCO4)CC2)c2cc(Cl)ccc2o1 [II-4, 4-(1-Benzo[1,3]dioxol-5ylmethyl-piperidin-4-ylamino)-6-chloro-chromen-2-one]",≥ 50%
17,"O=c1cc(NC2CCN(Cc3csc4ccccc34)CC2)c2cc(Cl)ccc2o1 [II-6, 4-(1-Benzo[b]thiophen-3-ylmethyl-piperidin-4-ylamino)-6-chloro-chromen-2-one]",≥ 50%
18,"O=c1cc(NC2CCN(Cc3cc4ccccc4o3)CC2)c2cc(Cl)ccc2o1 [II-18, 4-(1-Benzofuran-2-ylmethyl-piperidin-4-ylamino)-6-chloro-chromen-2-one]",≥ 50%
19,"COc1ccc2oc(=O)cc(NC3CCN(Cc4ccc5ccccc5c4)CC3)c2c1 [II-19, 6-Methoxy-4-(1-naphthalen-2-ylmethyl-piperidin-4-ylamino)-chromen-2-one trifluoroacetate]",≥ 50%
20,"C[C@H](c1ccc2c(c1)OCO2)N1CCC(Nc2cc(=O)oc3ccc(Cl)cc23)CC1 [II-28, 4-[1-(1-Benzo[1,3]dioxol-5-yl-ethyl)-piperidin-4-ylamino]-6-chloro-chromen-2-one]",≥ 50%
21,"O=c1cc(NC2CCN(Cc3ccc4cc[nH]c4c3)CC2)c2cc(Cl)ccc2o1 [II-31, 6-Chloro-4-[1-(1H-indol-6-ylmethyl)-piperidin-4-ylamino]-chromen-2-one]",≥ 50%
22,"O=c1cc(NC2CCN(Cc3ccc4ccccc4c3)CC2)c2cc(OC(F)F)ccc2o1 [II-32, 6-Difluoromethoxy-4-(1-naphthalen-2-ylmethyl-piperidin-4-ylamino)-chromen-2-one]",≥ 50%

# Next, values leading:
row,inhibition at 10 µM,Compound
1,≥ 50%,"CN(C)C(=O)c1c(NC2CCN(Cc3ccc4occc4c3)CC2)c2cc(Cl)ccc2n(C)c1=O [Compound V-40, 4-(1-Benzofuran-5-ylmethyl-piperidin-4-ylamino)-6-chloro-1-methyl-2-oxo-1,2-dihydro-quinoline-3-carboxylic acid dimethylamide]"
2,≥ 50%,"CC(C)c1ccc2c(c1)c(NC1CCN(Cc3ccc4c(c3)OCO4)CC1)cc(=O)n2C [Compound V-43, 4-(1-Benzo[1,3]dioxol-5-ylmethyl-piperidin-4-ylamino)-6-isopropyl-1-methyl-1H-quinolin-2-one]"
3,≥ 50%,"Cn1c(=O)c(C2=NC(C)(C)CO2)c(NC2CCN(Cc3ccc4c(c3)OCO4)CC2)c2cc(Cl)ccc21 [Compound V-49, 4-(1-Benzo[1,3]dioxol-5-ylmethyl-piperidin-4-ylamino)-6-chloro-3-(4,4-dimethyl-4,5-dihydro-oxazol-2-yl)-1-methyl-1H-quinolin-2-one]"
4,≥ 50%,"O=c1cc(NC2CCN(Cc3ccc4c(c3)OCO4)CC2)c2cc(C(F)(F)F)ccc2n1CC(F)(F)F [Compound V-58, 4-(1-Benzo[1,3]dioxol-5-ylmethyl-piperidin-4-ylamino)-1-(2,2,2-trifluoro-ethyl)-6-trifluoromethyl-1H-quinoline-2-one]"
5,≥ 50%,"COc1ccc2c(c1)c(NC1CCN(Cc3ccc4c(c3)OCO4)CC1)c(C(=O)N(C)C)c(=O)n2C [Compound V-60, 4-(1-Benzo[1,3]dioxol-5-ylmethyl-piperidin-4-ylamino)-6-methoxy-1-methyl-2-oxo-1,2-dihydro-quinoline-3-carboxylic acid dimethylamide]"
6,≥ 50%,"O=c1cc(NC2CCN(Cc3cccc4ccccc34)CC2)c2cc(Cl)ccc2o1 [II-5, 6-Chloro-4-(1-naphthalen-1-ylmethyl-piperidin-4-ylamino)-chromen-2-one]"
7,≥ 50%,"COc1ccc2oc(=O)cc(NC3CCN(Cc4ccc(C)cc4C)CC3)c2c1 [II-25, 4-[1-(2,4-Dimethyl-benzyl)-piperidin-4-ylamino]-6-methoxy-chromen-2-one trifluoroacetate]"
8,≥ 50%,"COc1ccc2oc(=O)c(F)c(NC3CCN(Cc4ccc5c(c4)OCO5)CC3)c2c1 [II-26, 4-(1-Benzo{1,3}dioxol-5-ylmethyl-piperidin-4-ylamino)-3-fluoro-6-methoxychromene-2-one]"
9,≥ 50%,"COc1ccc2oc(=O)cc(NC3CCN(Cc4ccc5ccc(C)cc5c4)CC3)c2c1 [II-27, 6-Methoxy-4-[1-(7-methyl-naphthalen-2-ylmethyl)-piperidin-4-ylamino]-chromen-2-one trifluoroacetate]"
10,≥ 50%,"COc1ccc2oc(=O)cc(NC3CCN(Cc4ccc(C)c(C)c4)CC3)c2c1 [II-29, 4-[1-(3,4-Dimethyl-benzyl)-piperidin-4-ylamino]-6-methoxy-chromen-2-one trifluoroacetate]"
